# From paper PMC6320956, “O-Aminoalkyl-O-Trimethyl-2,3-Dehydrosilybins: Synthesis and In Vitro Effects Towards Prostate Cancer Cells” (Molecules, 2018)
# Where two headings read alike, the source gives them in different places.
# Experiments:
# DU145 cells [1] = settings: WST-1, three days of exposure; cited from earlier work
# LNCaP cells [2] = settings: WST-1, three days of exposure; cited from earlier work
# PC-3 cells [3] = settings: WST-1, three days of exposure; cited from earlier work
# LNCaP cells [4] = test: WST-1 cell proliferation assay, LNCaP; format: cell-based, human; settings: for IC50 (Silibinin)/IC50(Derivative) LNCaP: fold potency relative to silibinin; for IC50: WST-1, three days of exposure, mean ± SD, n = 3
# Method: (§1) The in vitro antiproliferative activities of six 7-O-substituted and 26 3-O-substituted silybin derivatives were evaluated using the WST-1 cell proliferation assay, according to the procedure as described in the Experimental Section in both androgen-sensitive (LNCaP) and androgen-insensitive (PC-3 and DU145) human prostate cancer cell lines. Silibinin and docetaxel were used as a positive control for comparison in the parallel experiments and the IC50 values calculated from the dose-response curves are summarized in Table 1. […] A three-carbon linker in 11 and 29, as well as a five-carbon linker in 31, 37 and 40, are beneficial to the potency.
# (§2) All cell lines were initially purchased from American Type Culture Collection (ATCC^TM) (Manassas, VA, USA). The PC-3 and LNCaP prostate cancer cell lines were routinely cultured in RPIM-1640 medium supplemented with 10% FBS and 1% penicillin/streptomycin. The DU145 prostate cancer cells were routinely cultured in Eagle’s Minimum Essential Medium (EMEM) supplemented with 10% FBS and 1% penicillin/streptomycin. Cultures were maintained in a high humidity environment supplemented with 5% carbon dioxide at a temperature of 37 °C.
# (§3) PC-3, DU145, or LNCaP cells were plated in 96-well plates at a density of 3,200 per well in 200 µL of culture medium. The cells were then separately treated with silibinin, or synthesized silibinin derivatives, at five different doses for three days, while equal treatment volumes of DMSO (0.25%) were used as the vehicle control. The cells were cultured in a CO2 incubator at 37 °C for three days. A total of 10 µL of the premixed WST-1 cell proliferation reagent (Clontech) was added to each well. After mixing gently for one min on an orbital shaker, the cells were incubated for an additional 3 h at 37 °C. To ensure a homogeneous distribution of color, it is important to mix gently on an orbital shaker for one min. The absorbance of each well was measured using a microplate reader (Synergy HT, BioTek, Winooski, VT, USA) at a wavelength of 430 nm. […] For calculating the IC50 values, a linear proliferative inhibition was made based on at least five dosages for each compound.
# DU145 cells [5] = test: WST-1 cell proliferation assay, DU145; format: cell-based, human; settings: for IC50 (Silibinin)/IC50(Derivative) DU145: fold potency relative to silibinin; for IC50: Homo sapiens, DU-145, 72 h, WST-1, three days of exposure, mean ± SD, n = 3
# Method: as §1, §2, §3
# PC-3 cells [6] = test: WST-1 cell proliferation assay, PC-3; format: cell-based, human; settings: for IC50 (Silibinin)/IC50(Derivative) PC-3: fold potency relative to silibinin; for IC50: WST-1, three days of exposure, mean ± SD, n = 3
# Method: as §1, §2, §3
# PC-3 cells [7] = test: F2N12S and SYTOX AADvanced double staining apoptosis assay; format: cell-based, human; settings: for early phase apoptosis in PC-3 cells: 5 µM; for early phase apoptosis in PC-3 cells / early apoptotic cells / late apoptotic/necrotic cells: range over 11, 37, 40; for concentration at which the apoptotic cell population reached its maximum: PC-3, 16 h
# [8] = test system: PWR-1E non-neoplastic human prostate epithelial cells; test: WST-1 cell proliferation assay, PWR-1E non-neoplastic cells; format: cell-based; settings: Homo sapiens, PWR-1E, 72 h; WST-1, three days of exposure, mean ± SD, n = 3
# Method: (§4) Silibinin and five potent derivatives (11, 29, 31, 37, and 40) were selected for further evaluation against the MCF 10A non-neoplastic human mammary epithelial cell line and PWR-1E non-neoplastic human prostate epithelial cells.
# as §3
# PC-3 cells [9] = test: Cell cycle analysis by flow cytometry (propidium iodide); format: cell-based, human; settings: 20 µM, 16 h; controls 55.7% (11), 36.2% (29), 33.1% (31, 37, 40)
# Method: Silibinin can arrest the rat (H-7 and I-8) and human prostate cancer cell (LNCaP) cycle at the G1 phase, and cause G1 and G2-M PC-3 prostate cancer cell cycle arrest.
# PC-3 cells were plated in 24-well plates at a density of 200,000 per well in 400 µL of culture medium. […] […] Both attached and floating cells were collected in a centrifuge tube by centrifugation at an rcf value of 450 g for 5 min. After discarding the supernatant, the collected cells were re-suspended with 500 µL 80% cold ethanol to fix them for 30 min in 4 °C. The fixed cells could be stored at −20 °C for one week. After fixation, the ethanol was removed after centrifuging and the cells were washed with PBS. The cells were then re-suspend with 100 μL of […] ribonuclease and were cultured at 37 °C for 30 min to degrade all RNA. The cells were stained with 200 μL of 50 μg/mLpropidium iodide stock solution for 30 min at […], and then the fluorescence intensity of PI was detected in individual PC-3 cells using an Attune flow cytometer (Life Technologies, Carlsbad, CA, USA) within 0.5 to 1 h after staining.
# [10] = test system: prostate cancer cell lines (LNCaP, PC-3 and DU145); test: WST-1 cell proliferation assay, three prostate cancer cell lines together; format: cell-based, human; settings: range for the five optimal derivatives over PC-3, DU145, LNCaP; for IC50: Homo sapiens
# From the text: As part of our ongoing silybin project, this study aims to introduce a basic nitrogen-containing group to 7-OH of 3,5,20-O-trimethyl-2,3-dehydrosilybin or 3-OH of 5,7,20-O-trimethyl-2,3-dehydrosilybin via an appropriate linker for in vitro evaluation as potential anti-prostate cancer agents. The synthetic approaches to 7-O-substituted-3,5,20-O-trimethyl-2,3-dehydrosilybins through a five-step procedure and to 3-O-substituted-5,7,20-O-trimethyl-2,3- dehydrosilybins via a four-step transformation have been developed. Thirty-two nitrogen-containing derivatives of silybin have been achieved through these synthetic methods for the evaluation of their antiproliferative activities towards both androgen-sensitive (LNCaP) and androgen-insensitive prostate cancer cell lines (PC-3 and DU145) using the WST-1 cell proliferation assay. […] All these five optimal derivatives can arrest the PC-3 cell cycle in the G0/G1 phase and promote PC-3 cell apoptosis.
# as §3
# In summary, six 7-O-aminoalkyl-3,5-20-O-trimethyl-2,3-dehydrosilybins and 26 3-O-aminoalkyl-5,7,20-O-trimethyl-2,3-dehydrosilybins have been successfully synthesized through a five-step and four-step sequence, respectively. The synthetic methods can be used for the general synthesis of 7-O-substituted-3,5,20-O-trimethyl-2,3-dehydrosilybins and 3-O-substituted-5,7,20-O- trimethyl-2,3-dehydrosilybins. The antiproliferative activities of the 32 derivatives against three prostate cancer cell lines have been evaluated using the WST-1 cell proliferation assay. […] All these five optimal derivatives can cause PC-3 cell accumulation in a G0/G1 phase by increasing the cell population in this phase at 16 h. Derivatives 11, 37, and 40 show a stronger ability than derivatives 29 and 31 in activating PC-3 cell apoptosis by inducing appreciable levels of apoptotic cell death at a 5 µM concentration after 16 h of treatment.
# [11] = test system: MCF 10A non-neoplastic human mammary epithelial cell line; test: WST-1 cell proliferation assay, MCF 10A non-neoplastic cells; format: cell-based; settings: Homo sapiens, MCF-10A, 72 h; WST-1, three days of exposure, mean ± SD, n = 3
# Method: as §4, §3
SMILES,IC50 (DU145 cells [1]) [µM],IC50 (LNCaP cells [2]) [µM],IC50 (PC-3 cells [3]) [µM],IC50 (Silibinin)/IC50(Derivative) LNCaP (LNCaP cells [4]),IC50 (Silibinin)/IC50(Derivative) DU145 (DU145 cells [5]),IC50 (Silibinin)/IC50(Derivative) PC-3 (PC-3 cells [6]),"IC50 (LNCaP cells [4]; Homo sapiens, LNCaP, 72 h) [µM]",IC50 (DU145 cells [5]) [µM],"IC50 (PC-3 cells [6]; Homo sapiens, PC-3, 72 h) [µM]",IC50 [8] [µM],PC-3 cell population in G0/G1 phase (PC-3 cells [9]) [%],IC50 [10] [µM],fold improvement in potency compared to silibinin [10],IC50 [11] [µM],IC50 (LNCaP cells [4]) [µM],IC50 (PC-3 cells [6]) [µM],also measured
"COc1cc(C2Oc3cc(-c4oc5cc(O)cc(O)c5c(=O)c4O)ccc3OC2CO)ccc1O (stereo not shown) [Compound 2, 2,3-dehydrosilybin]",11.5 ± 1.42,3.09 ± 1.3,9.45 ± 0.56,14,8,8,–,–,–,–,–,–,–,–,–,–,–
"CCOc1cc(O)c2c(=O)c(O)c(-c3ccc4c(c3)OC(c3ccc(O)c(OC)c3)C(CO)O4)oc2c1 (stereo not shown) [Compound 3, 7-O-ethyl-2,3-dehydrosilybin, reference compound]",7.59 ± 0.66,2.58 ± 0.07,3.25 ± 0.31,17,12,22,–,–,–,–,–,–,–,–,–,–,–
"COc1ccc(C2Oc3cc(-c4oc5cc(OCCCBr)cc(OC)c5c(=O)c4OC)ccc3OC2CO)cc1OC (stereo not shown) [Compound 8, 7-O-(3′-bromo)propyl-3,5,20-O-trimethyl-2,3-dehydrosilybin]",–,–,–,8,8,3,5.71 ± 2.13,11.5 ± 2.38,26.1 ± 3.58,–,–,–,–,–,–,–,melting point: 115 to 116 °C
COc1cc(OC)c2c(=O)c(OCCCCCN3CCCCC3)c(-c3ccc4c(c3)OC(c3ccc(OC)c(OC)c3)C(CO)O4)oc2c1 (stereo not shown) [Compound 37],–,–,–,–,–,–,≤ 3,2.69 ± 0.03,≤ 3,< 5,34.6,1.4 to 3.06,17- to 52 fold,< 5,1.99 ± 0.23,2.71 ± 0.23,"early phase apoptosis in PC-3 cells (PC-3 cells [7]; 16 h): 26–59%; early apoptotic cells (PC-3 cells [7]; 10 µM, 16 h): 56–76%; late apoptotic/necrotic cells (PC-3 cells [7]; 10 µM, 16 h): 6–40%; early apoptotic cells (PC-3 cells [7]; 20 µM, 16 h): 54–75%; late apoptotic/necrotic cells (PC-3 cells [7]; 20 µM, 16 h): 16–44%; concentration at which the apoptotic cell population reached its maximum (PC-3 cells [7]): 10 µM"
COc1cc(OC)c2c(=O)c(OCCCCCN3CCOCC3)c(-c3ccc4c(c3)OC(c3ccc(OC)c(OC)c3)C(CO)O4)oc2c1 (stereo not shown) [Compound 40],–,–,–,–,–,–,≤ 3,3.06 ± 0.13,≤ 3,< 5,43.4,1.4 to 3.06,17- to 52 fold,< 5,2.23 ± 0.18,2.72 ± 0.08,"early phase apoptosis in PC-3 cells (PC-3 cells [7]; 16 h): 26–59%; early apoptotic cells (PC-3 cells [7]; 10 µM, 16 h): 56–76%; late apoptotic/necrotic cells (PC-3 cells [7]; 10 µM, 16 h): 6–40%; early apoptotic cells (PC-3 cells [7]; 20 µM, 16 h): 54–75%; late apoptotic/necrotic cells (PC-3 cells [7]; 20 µM, 16 h): 16–44%; concentration at which the apoptotic cell population reached its maximum (PC-3 cells [7]): 30 µM"
CCCCN(CCCC)CCCCCOc1c(-c2ccc3c(c2)OC(c2ccc(OC)c(OC)c2)C(CO)O3)oc2cc(OC)cc(OC)c2c1=O (stereo not shown) [Compound 31],–,–,–,–,–,–,≤ 3,2.85 ± 0.23,≤ 3,< 5,35.9,1.4 to 3.06,17- to 52 fold,< 5,2.51 ± 0.31,2.84 ± 0.1,"maximum apoptotic cell population (PC-3 cells [7]; 50 µM, 16 h): 95%; apoptotic cell death (PC-3 cells [7]; up to a 10 µM concentration, 16 h): less than 10%"
"CNCCCOc1cc(OC)c2c(=O)c(OC)c(-c3ccc4c(c3)OC(c3ccc(OC)c(OC)c3)C(CO)O4)oc2c1 (stereo not shown) [Compound 9, 7-O-(N-Methylaminopropyl)-3,5,20-O-trimethyl-2,3-dehydrosilybin]",–,–,–,4,2,2,12.1 ± 1.81,39.6 ± 9.49,42.6 ± 6.61,–,–,–,–,–,–,–,melting point: 125 to 127 °C
"CCCOc1c(-c2ccc3c(c2)OC(c2ccc(O)c(OC)c2)C(CO)O3)oc2cc(O)cc(O)c2c1=O (stereo not shown) [Compound 4, 3-O-propyl-2,3-dehydrosilybin, reference compound]",11 ± 0.68,2.07 ± 0.18,1.71 ± 0.45,21,8,42,–,–,–,–,–,–,–,–,–,–,–
